Experimental data published in PubChem BioAssay AID2060620 (Molecular Pharmacology Branch, DTP, NCI, 2025).

Test system: 328373-195-R-J1-PDC complex spheroids, viability % test/control
Assay: Anticancer human tumor 328373-195-R-J1-PDC patient-derived head and neck squamous carcinoma cell line growth inhibition [CLK]
Conditions: for IC50: curve of first compound; for viability, T/C: stronger effect = lower value; active = viability on the fitted dose curve at most 10% of control; inactive = the rest
Procedure, shortened: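 Multi-cell-type spheroids combined patient-derived tumor cells with HUVEC endothelial cells and human mesenchymal stem cells. Paired agents were dosed in half-log steps down from about clinical Cmax, or from 10 microM where Cmax was unknown.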

[1] = second compound 0.0316 µM, first compound 0.0316 µM
[2] = second compound 0.0316 µM, first compound 0.1 µM
[3] = second compound 0.0316 µM, first compound 0.316 µM
[4] = second compound 0.0316 µM, first compound 1 µM
[5] = second compound 0.1 µM, first compound 0.0316 µM
[6] = second compound 0.1 µM, first compound 0.1 µM
[7] = second compound 0.1 µM, first compound 0.316 µM
[8] = second compound 0.1 µM, first compound 1 µM
[9] = second compound 0.316 µM, first compound 0.0316 µM
[10] = second compound 0.316 µM, first compound 0.1 µM
[11] = second compound 0.316 µM, first compound 0.316 µM
[12] = second compound 0.316 µM, first compound 1 µM
[13] = second compound 1 µM, first compound 0.0316 µM
[14] = second compound 1 µM, first compound 0.1 µM
[15] = second compound 1 µM, first compound 0.316 µM
[16] = second compound 1 µM, first compound 1 µM
[17] = second compound 3.16 µM, first compound 0.0316 µM
[18] = second compound 3.16 µM, first compound 0.1 µM
[19] = second compound 3.16 µM, first compound 0.316 µM
[20] = second compound 3.16 µM, first compound 1 µM
[21] = second compound 10 µM, first compound 0.0316 µM
[22] = second compound 10 µM, first compound 0.1 µM
[23] = second compound 10 µM, first compound 0.316 µM
[24] = second compound 10 µM, first compound 1 µM
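Note: spheroids exposed to the agents for 7 days.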

CC(=O)O[C@H]1C(=O)[C@@]2(C)[C@H]([C@H](OC(=O)c3ccccc3)[C@]3(O)C[C@H](OC(=O)[C@H](O)[C@@H](NC(=O)c4ccccc4)c4ccccc4)C(C)=C1C3(C)C)[C@]1(OC(C)=O)CO[C@@H]1C[C@@H]2O + CNC(=O)c1ccc(Nc2nc(OC3CCCC3)c3c(-c4ccc5nc(C)oc5c4)c[nH]c3n2)c(OC)c1
< 31.6 nM: IC50 (second compound 0.0316 µM) | IC50 (second compound 0.1 µM) | IC50 (second compound 0.316 µM) | IC50 (second compound 1 µM) | IC50 (second compound 3.16 µM) | IC50 (second compound 10 µM)
inactive: viability, T/C [1] 11.7% | viability, T/C [2] 7.56% | viability, T/C [3] 14% | viability, T/C [4] 13.7% | viability, T/C (second compound 0.0316 µM, first compound 3.16 µM) 12.7% | viability, T/C (second compound 0.0316 µM, first compound 10 µM) 22% | viability, T/C [5] 20.2% | viability, T/C [6] 22.9% | viability, T/C [7] 18.8% | viability, T/C [8] 26.1% | viability, T/C (second compound 0.1 µM, first compound 3.16 µM) 25.2% | viability, T/C (second compound 0.1 µM, first compound 10 µM) 29.1% | viability, T/C [9] 21.1% | viability, T/C [10] 23.5% | viability, T/C [11] 24.7% | viability, T/C [12] 29.3% | viability, T/C (second compound 0.316 µM, first compound 3.16 µM) 32.1% | viability, T/C (second compound 0.316 µM, first compound 10 µM) 29.8% | viability, T/C [13] 21% | viability, T/C [14] 24% | viability, T/C [15] 27% | viability, T/C [16] 30.8% | viability, T/C (second compound 1 µM, first compound 3.16 µM) 36.7% | viability, T/C (second compound 1 µM, first compound 10 µM) 28% | viability, T/C [17] 22.2% | viability, T/C [18] 27.2% | viability, T/C [19] 29.8% | viability, T/C [20] 32.7% | viability, T/C (second compound 3.16 µM, first compound 3.16 µM) 37.1% | viability, T/C (second compound 3.16 µM, first compound 10 µM) 33.9% | viability, T/C [21] 20% | viability, T/C [22] 28.6% | viability, T/C [23] 30.5% | viability, T/C [24] 36.7% | viability, T/C (second compound 10 µM, first compound 3.16 µM) 42.3% | viability, T/C (second compound 10 µM, first compound 10 µM) 36%

CCc1c2c(nc3ccc(O)cc13)-c1cc3c(c(=O)n1C2)COC(=O)[C@]3(O)CC + CNC(=O)c1ccc(Nc2nc(OC3CCCC3)c3c(-c4ccc5nc(C)oc5c4)c[nH]c3n2)c(OC)c1
active: viability, T/C (second compound 0.0316 µM, first compound 0.00316 µM) 7.71% | viability, T/C (second compound 0.0316 µM, first compound 0.01 µM) 1.63% | viability, T/C [1] 2.84% | viability, T/C [2] 0.67% | viability, T/C [3] 0.38% | viability, T/C [4] 0.09% | viability, T/C (second compound 0.1 µM, first compound 0.00316 µM) 7.73% | viability, T/C (second compound 0.1 µM, first compound 0.01 µM) 1.04% | viability, T/C [5] 2.54% | viability, T/C [6] 0.41% | viability, T/C [7] 1.87% | viability, T/C [8] 2.57% | viability, T/C (second compound 0.316 µM, first compound 0.00316 µM) 7.15% | viability, T/C (second compound 0.316 µM, first compound 0.01 µM) 3.14% | viability, T/C [9] 1.9% | viability, T/C [10] 0.39% | viability, T/C [11] 1.85% | viability, T/C [12] 0.68% | viability, T/C (second compound 1 µM, first compound 0.00316 µM) 5.68% | viability, T/C (second compound 1 µM, first compound 0.01 µM) 1.49% | viability, T/C [13] 1.06% | viability, T/C [14] 0.86% | viability, T/C [15] 0.2% | viability, T/C [16] 1.91% | viability, T/C (second compound 3.16 µM, first compound 0.00316 µM) 9.03% | viability, T/C (second compound 3.16 µM, first compound 0.01 µM) 2.69% | viability, T/C [17] 1.66% | viability, T/C [18] 0.35% | viability, T/C [19] 1.13% | viability, T/C [20] 1.82% | viability, T/C (second compound 10 µM, first compound 0.01 µM) 1.94% | viability, T/C [21] 1.92% | viability, T/C [22] 0.95% | viability, T/C [23] 2.93% | viability, T/C [24] 1.05%
inactive: viability, T/C (second compound 10 µM, first compound 0.00316 µM) 10.2%
< 3.16 nM: IC50 (second compound 0.0316 µM) | IC50 (second compound 0.1 µM) | IC50 (second compound 0.316 µM) | IC50 (second compound 1 µM) | IC50 (second compound 3.16 µM) | IC50 (second compound 10 µM)
